Results from patent US5916873A, “Teicoplanin derivatives” (Eli Lilly and Company, priority 1998, dated 1999).
Values after ≈ are worked out from the molar mass of the structure shown.

Tests used:
EC14 = test: standard broth micro-dilution MIC; type: cell-based; details: Table 2C; strain EC14
Experimental: (§1) The antibacterial efficacy of the present teicoplanin derivatives is illustrated by the following tables. The minimal inhibitory concentrations (MICs) were determined using a standard broth micro-dilution assay.

St. pyro C203 = test: standard broth micro-dilution MIC; type: cell-based; details: Table 2C; strain C203
Experimental: as §1

St. pneumo P1 = test: standard broth micro-dilution MIC; type: cell-based; details: Table 2C; strain P1
Experimental: as §1

S. aureus 447 = test: standard broth micro-dilution MIC; type: cell-based; details: Table 2A; strain 447
Experimental: as §1

E. gall. 245 = test: standard broth micro-dilution MIC; type: cell-based; details: Table 2C; strain 245
Experimental: as §1

S. aureus X778 = test: standard broth micro-dilution MIC; type: cell-based; details: Table 2A; strain X778
Experimental: as §1

E. f. 180-1 = test: standard broth micro-dilution MIC; type: cell-based; details: Table 2B; strain 180-1
Experimental: as §1

S. aureus 446 = test: standard broth micro-dilution MIC; type: cell-based; details: Table 2A; strain 446
Experimental: as §1

S. h. 415 = test: standard broth micro-dilution MIC; type: cell-based; details: Table 2B; strain 415
Experimental: as §1

H. influ RD = test: standard broth micro-dilution MIC; type: cell-based; details: Table 2C; strain RD
Experimental: as §1

S. aureus 489 = test: standard broth micro-dilution MIC; type: cell-based; details: Table 2A; strain 489
Experimental: as §1

E. f. 276 = test: standard broth micro-dilution MIC; type: cell-based; details: Table 2C; strain 276
Experimental: as §1

M. cat M12 = test: standard broth micro-dilution MIC; type: cell-based; details: Table 2C; strain M12
Experimental: as §1

S. h. 105 = test: standard broth micro-dilution MIC; type: cell-based; details: Table 2B; strain 105
Experimental: as §1

S. aureus SA1199R = test: standard broth micro-dilution MIC; type: cell-based; details: Table 2B; strain SA1199R
Experimental: as §1

E. f. 2041 = test: standard broth micro-dilution MIC; type: cell-based; details: Table 2B; strain 2041
Experimental: as §1

S. aureus 491 = test: standard broth micro-dilution MIC; type: cell-based; details: Table 2A; strain 491
Experimental: as §1

S. aureus S13E = test: standard broth micro-dilution MIC; type: cell-based; details: Table 2A; strain S13E
Experimental: as §1

S. aureus SA1199B = test: standard broth micro-dilution MIC; type: cell-based; details: Table 2B; strain SA1199B
Experimental: as §1

S. epi 270 = test: standard broth micro-dilution MIC; type: cell-based; details: Table 2B; strain 270
Experimental: as §1

S. aureus X400 = test: standard broth micro-dilution MIC; type: cell-based; details: Table 2A; strain X400
Experimental: as §1

S. aureus SA1199 = test: standard broth micro-dilution MIC; type: cell-based; details: Table 2A; strain SA1199
Experimental: as §1

E. f. 180 = test: standard broth micro-dilution MIC; type: cell-based; details: Table 2B; strain 180
Experimental: as §1

H. influR D/BL+ = type: cell-based, H. influ; details: Table 2C; strain RD/BL+
Experimental: as §1

[1] = tested on: vancomycin-resistant enterococci; test: mean geometric MIC, vancomycin-resistant enterococci, broth micro-dilution; type: cell-based, Enterococcus faecium and Enterococcus faecalis; details: Table 3, representative vancomycin-resistant enterococci
Experimental: as §1

[2] = tested on: vancomycin-sensitive enterococci; test: mean geometric MIC, vancomycin-sensitive enterococci, broth micro-dilution; type: cell-based, Enterococcus faecium and Enterococcus faecalis; details: Table 3, representative vancomycin-sensitive enterococci
Experimental: as §1

Structure (SMILES)	MIC EC14 (EC14) [µg/mL]	MIC St. pyro C203 (St. pyro C203)	MIC St. pneumo P1 (St. pneumo P1)	MIC S. aureus 447 (S. aureus 447)	MIC E. gall. 245 (E. gall. 245)	MIC S. aureus X778 (S. aureus X778)	MIC E. f. 180-1 (E. f. 180-1)	MIC S. aureus 446 (S. aureus 446)	MIC S. h. 415 (S. h. 415) [µg/mL]	MIC H. influ RD (H. influ RD) [µg/mL]	MIC S. aureus 489 (S. aureus 489)	MIC E. f. 276 (E. f. 276)	MIC M. cat M12 (M. cat M12)	MIC S. h. 105 (S. h. 105)	MIC S. aureus SA1199R (S. aureus SA1199R)	MIC E. f. 2041 (E. f. 2041)	MIC S. aureus 491 (S. aureus 491)	MIC S. aureus S13E (S. aureus S13E)	MIC S. aureus SA1199B (S. aureus SA1199B)	MIC S. epi 270 (S. epi 270)	further results
CC(=O)NC1C(OC2c3ccc(c(Cl)c3)Oc3cc4cc(c3OC3OC(CO)C(O)C(O)C3NCc3ccc(-c5ccccc5)cc3)Oc3ccc(cc3Cl)CC3NC(=O)C(NCc5ccc(-c6ccccc6)cc5)c5ccc(O)c(c5)Oc5cc(O)cc(c5)C(NC3=O)C(=O)NC4C(=O)NC3C(=O)NC2C(=O)NC(C(=O)O)c2cc(O)cc(OC4OC(CO)C(O)C(O)C4O)c2-c2cc3ccc2O)OC(CO)C(O)C1O.O=C(O)C(F)(F)F (stereo not drawn) [Example 1, Deacyl Teicoplanin, Bis(4-phenylbenzyl) Derivative]	> 64	≤ .06 µg/mL	≤ .06 µg/mL	2 µg/mL	≤ .06 µg/mL	0.25 µg/mL	≤ .06 µg/mL	0.5 µg/mL	4	64	0.125 µg/mL	≤ .06 µg/mL	≤ .06 µg/mL	≤ .06 µg/mL	≤ .06 µg/mL	≤ .06 µg/mL	0.25 µg/mL	0.25 µg/mL	0.5 µg/mL	1 µg/mL	MIC S. aureus X400 (S. aureus X400): 0.25 µg/mL; MIC S. aureus SA1199 (S. aureus SA1199): 0.25 µg/mL; MIC E. f. 180 (E. f. 180): ≤ 06 µg/mL; MIC H. influR D/BL+ (H. influR D/BL+): 64 µg/mL
CC(=O)NC1C(OC2c3ccc(c(Cl)c3)Oc3cc4cc(c3OC3OC(CO)C(O)C(O)C3N)Oc3ccc(cc3Cl)CC3NC(=O)C(NCc5ccc(-c6ccccc6)cc5)c5ccc(O)c(c5)Oc5cc(O)cc(c5)C(NC3=O)C(=O)NC4C(=O)NC3C(=O)NC2C(=O)NC(C(=O)O)c2cc(O)cc(OC4OC(CO)C(O)C(O)C4O)c2-c2cc3ccc2O)OC(CO)C(O)C1O (stereo not drawn) [Example 2, Deacyl Teicoplanin, N^15-(4-phenylbenzyl) Derivative]	> 32	≤ .03 µg/mL	≤ .03 µg/mL	0.25 µg/mL (≈ 0.132 µM)	0.25 µg/mL (≈ 0.132 µM)	0.125 µg/mL (≈ 0.0661 µM)	0.25 µg/mL (≈ 0.132 µM)	≤ .03 µg/mL	8 (≈ 4.23 µM)	16 (≈ 8.46 µM)	≤ .03 µg/mL	≤ .03 µg/mL	0.25 µg/mL (≈ 0.132 µM)	0.25 µg/mL (≈ 0.132 µM)	≤ .03 µg/mL	≤ .03 µg/mL	≤ .03 µg/mL	≤ .03 µg/mL	≤ .03 µg/mL	0.25 µg/mL (≈ 0.132 µM)	Resist. MIC [1]: > 32 µg/mL; Sens. MIC [2]: 2.6 µg/mL; MIC S. aureus X400 (S. aureus X400): ≤ .03 µg/mL; MIC S. aureus SA1199 (S. aureus SA1199): ≤ .03 µg/mL; MIC E. f. 180 (E. f. 180): 32 µg/mL (≈ 16.9 µM); MIC H. influR D/BL+ (H. influR D/BL+): 32 µg/mL (≈ 16.9 µM)
CCCCc1ccc(CNC2C(=O)NC3Cc4ccc(c(Cl)c4)Oc4cc5cc(c4OC4OC(CO)C(O)C(O)C4NCc4ccc(CCCC)cc4)Oc4ccc(cc4Cl)C(OC4OC(CO)C(O)C(O)C4NC(C)=O)C4NC(=O)C(NC(=O)C5NC(=O)C(NC3=O)c3cc(O)cc(c3)Oc3cc2ccc3O)c2ccc(O)c(c2)-c2c(OC3OC(CO)C(O)C(O)C3O)cc(O)cc2C(C(=O)O)NC4=O)cc1 (stereo not drawn) [Example 5]	> 64	≤ .06 µg/mL	≤ .06 µg/mL	0.5 µg/mL (≈ 0.248 µM)	≤ .06 µg/mL	0.25 µg/mL (≈ 0.124 µM)	≤ .06 µg/mL	0.5 µg/mL (≈ 0.248 µM)	4 (≈ 1.98 µM)	64 (≈ 31.7 µM)	0.5 µg/mL (≈ 0.248 µM)	≤ .06 µg/mL	≤ .06 µg/mL	0.125 µg/mL (≈ 0.0619 µM)	≤ .06 µg/mL	≤ .06 µg/mL	0.25 µg/mL (≈ 0.124 µM)	1 µg/mL (≈ 0.496 µM)	0.25 µg/mL (≈ 0.124 µM)	0.25 µg/mL (≈ 0.124 µM)	Resist. MIC [1]: 0.84 µg/mL; Sens. MIC [2]: 0.25 µg/mL; MIC S. aureus X400 (S. aureus X400): 0.25 µg/mL (≈ 0.124 µM); MIC S. aureus SA1199 (S. aureus SA1199): 0.25 µg/mL (≈ 0.124 µM); MIC E. f. 180 (E. f. 180): ≤ .06 µg/mL; MIC H. influR D/BL+ (H. influR D/BL+): 1 µg/mL (≈ 0.496 µM)
CC(=O)NC1C(OC2c3ccc(c(Cl)c3)Oc3cc4cc(c3OC3OC(CO)C(O)C(O)C3NCc3ccc5ccccc5c3)Oc3ccc(cc3Cl)CC3NC(=O)C(NCc5ccc6ccccc6c5)c5ccc(O)c(c5)Oc5cc(O)cc(c5)C(NC3=O)C(=O)NC4C(=O)NC3C(=O)NC2C(=O)NC(C(=O)O)c2cc(O)cc(OC4OC(CO)C(O)C(O)C4O)c2-c2cc3ccc2O)OC(CO)C(O)C1O (stereo not drawn) [Example 6]	> 64	≤ .06 µg/mL	≤ .06 µg/mL	≤ .06 µg/mL	≤ .06 µg/mL	≤ .06 µg/mL	≤ .06 µg/mL	≤ .06 µg/mL	4 (≈ 1.99 µM)	16 (≈ 7.98 µM)	≤ .06 µg/mL	≤ .06 µg/mL	≤ .06 µg/mL	≤ .06 µg/mL	≤ .06 µg/mL	≤ .06 µg/mL	≤ .06 µg/mL	≤ .06 µg/mL	≤ .06 µg/mL	≤ .06 µg/mL	Resist. MIC [1]: 3.4 µg/mL; Sens. MIC [2]: 0.11 µg/mL; MIC S. aureus X400 (S. aureus X400): ≤ .06 µg/mL; MIC S. aureus SA1199 (S. aureus SA1199): ≤ .06 µg/mL; MIC E. f. 180 (E. f. 180): 0.25 µg/mL (≈ 0.125 µM); MIC H. influR D/BL+ (H. influR D/BL+): 1 µg/mL (≈ 0.499 µM)
